We go through 26 compounds from ChEMBL document CHEMBL5584283, “Evaluation of Antibacterial Functionalized Dihydropyrimidine Photoaffinity Probes Toward Mechanism of Action Studies” (ACS Med Chem Lett, 2024).

In brackets after ≈: the same amount, converted by molar mass.

One data set relates to Erythrocyte. As to the kind of experiment: Hemolytic activity in sheep RBC assessed as hemolysis incubated for 1 hr by absorbance based analysis. In kind it is toxicity, cell-based, Ovis aries.
Data set [1] relates to Staphylococcus aureus. As to the kind of experiment: Antibacterial activity against Staphylococcus aureus ATCC 12600 assessed as partial growth inhibition at high concentration measured after 18 hrs by two-fold serial dilution method relative to control. In kind it is functional.
In data set [2] the test system is Staphylococcus aureus. Description: Antibacterial activity against Staphylococcus aureus ATCC 33591 assessed as partial growth inhibition at high concentration measured after 18 hrs by two-fold serial dilution method relative to control. Format: functional.
For data set [3], the system named is Staphylococcus aureus. As to the kind of experiment: Antibacterial activity against Staphylococcus aureus ATCC 43300 assessed as partial growth inhibition at high concentration measured after 18 hrs by two-fold serial dilution method relative to control. In kind it is functional.
Data set [4] deals with Staphylococcus aureus. As to the kind of experiment: Antibacterial activity against Staphylococcus aureus ATCC 12600 assessed as reduction in bacterial growth measured after 18 hrs by two-fold serial dilution method. In kind it is functional.
Data set [5] has as its system Staphylococcus aureus. As to the kind of experiment: Antibacterial activity against Staphylococcus aureus ATCC 43300 assessed as reduction in bacterial growth measured after 18 hrs by two-fold serial dilution method. In kind it is functional.
The test system of data set [6] is Staphylococcus aureus. Description: Antibacterial activity against Staphylococcus aureus ATCC 33591 assessed as reduction in bacterial growth measured after 18 hrs by two-fold serial dilution method. In kind it is functional.

For the compound `CCOC(=O)C1=C(c2cccc(C(F)(F)F)c2)NC(N)=NC1c1cc(Cl)cc(Cl)c1` (configuration not stated), in the data set on Erythrocyte, the HC20 was more than 64 µg/mL.
Turning to `CCOC(=O)C1=C(c2ccccc2)NC(N)=NC1c1cc(Cl)cc(Cl)c1` (configuration not stated), the “growth inhibition (GI)” value in the data set on Staphylococcus aureus [1], in the data set on Staphylococcus aureus [2] and in the data set with Staphylococcus aureus [3] was more than 95% each time. The HC20 in the data set on Erythrocyte was more than 64 µg/mL.
For the compound `CCOC(=O)C1=C(c2cccc(F)c2)NC(N)=NC1c1ccc(CC(C)C)cc1` (configuration not stated), in the data set with Erythrocyte, the HC20 was more than 64 µg/mL.
As to `CCOC(=O)C1=C(c2ccccc2)NC(N)=NC1c1c(C)cccc1C` (configuration not stated), the MIC in the data set with Staphylococcus aureus [4] and in the data set with Staphylococcus aureus [5] was 32 µg/mL (≈ 91.6 µM) in each case. Moreover, the “growth inhibition (GI)” value in the data set on Staphylococcus aureus [1] and in the data set on Staphylococcus aureus [3] was more than 95% throughout.
For the compound `CCOC(=O)C1=C(c2ccccc2)NC(N)=NC1c1ccc(-c2ccccc2)cc1` (configuration not stated), the HC20 with Erythrocyte is more than 64 µg/mL.
In the case of `CCOC(=O)C1=C(c2ccccc2)NC(N)=NC1c1ccc(CC(C)C)cc1` (configuration not stated), the “growth inhibition (GI)” value with Staphylococcus aureus [2] is more than 95%. In addition, the HC20 in the data set on Erythrocyte was more than 64 µg/mL.
Turning to `CCOC(=O)C1=C(CC)NC(N)=NC1c1ccc(-c2ccccc2)cc1` (configuration not stated), the MIC in the data set with Staphylococcus aureus [4] and with Staphylococcus aureus [5] was 4 µg/mL (≈ 11.4 µM) each time. In addition, the “growth inhibition (GI)” value in the data set with Staphylococcus aureus [1] and in the data set on Staphylococcus aureus [3] was more than 95% each time.
As to `CCOC(=O)C1=C(CC)NC(N)=NC1c1ccc(CC(C)C)cc1` (configuration not stated), the “growth inhibition (GI)” value with Staphylococcus aureus [1] and with Staphylococcus aureus [3] was more than 95% each time. Moreover, in the data set on Erythrocyte, the HC20 was more than 64 µg/mL.
Turning to `CCOC(=O)C1=C(c2ccccc2)NC(N)=NC1c1cccc(F)c1` (configuration not stated), the MIC with Staphylococcus aureus [4], in the data set on Staphylococcus aureus [6] and in the data set with Staphylococcus aureus [5] was 64 µg/mL (≈ 189 µM) in each case. Also, the “growth inhibition (GI)” value with Staphylococcus aureus [1], in the data set on Staphylococcus aureus [2] and in the data set with Staphylococcus aureus [3] was more than 95% each time.
Take `CCOC(=O)C1=C(c2ccccc2)NC(N)=NC1c1ccc(N(C)C)cc1` (configuration not stated): the MIC with Staphylococcus aureus [4], in the data set on Staphylococcus aureus [6] and in the data set on Staphylococcus aureus [5] was 64 µg/mL (≈ 176 µM) each time. Further, the “growth inhibition (GI)” value in the data set on Staphylococcus aureus [1], in the data set on Staphylococcus aureus [2] and in the data set with Staphylococcus aureus [3] was more than 95% in each case.
Consider `CCOC(=O)C1=C(c2ccccc2)NC(N)=NC1c1ccccc1` (configuration not stated), for which the HC20 in the data set with Erythrocyte is more than 64 µg/mL.
The same measure, in the same setting: the result for `CCOC(=O)C1=C(c2ccccc2)NC(N)=NC1c1ccccc1OC` (configuration not stated) reads more than 64 µg/mL.
`COc1cc(Cc2cnc(N)nc2N)cc(OC)c1OC` [TRIMETHOPRIM]: the results for the MIC in the data set on Staphylococcus aureus [4], with Staphylococcus aureus [6] and with Staphylococcus aureus [5] were 32 µg/mL (≈ 110 µM), 8 µg/mL (≈ 27.6 µM) and 8 µg/mL (≈ 27.6 µM), respectively. Also, the “growth inhibition (GI)” value in the data set with Staphylococcus aureus [1], in the data set on Staphylococcus aureus [2] and with Staphylococcus aureus [3] was more than 95% in each case.
For the compound `CCOC(=O)C1=C(c2ccccc2)NC(N)=NC1c1cccc(C)c1` (configuration not stated), the MIC with Staphylococcus aureus [4], with Staphylococcus aureus [6] and with Staphylococcus aureus [5] was 64 µg/mL (≈ 191 µM) throughout. The “growth inhibition (GI)” value with Staphylococcus aureus [1], in the data set with Staphylococcus aureus [2] and with Staphylococcus aureus [3] was more than 95% in each case.
As to GENTAMICIN, the results for the MIC in the data set with Staphylococcus aureus [4], with Staphylococcus aureus [6] and in the data set with Staphylococcus aureus [5] were 4 µg/mL, 4 µg/mL and 128 µg/mL, respectively.
For the compound `CCOC(=O)C1=C(c2cccc(F)c2)NC(N)=NC1c1cc(Cl)cc(Cl)c1` (configuration not stated), the HC20 with Erythrocyte is more than 64 µg/mL.
Still for that read-out and setting: the result for `CCOC(=O)C1=C(c2ccccc2)NC(N)=NC1c1cccc(Cl)c1` (configuration not stated) reads more than 64 µg/mL.
Take `CCOC(=O)C1=C(c2ccccc2)NC(N)=NC1c1ccc(C(C)C)cc1` (configuration not stated): the “growth inhibition (GI)” value in the data set on Staphylococcus aureus [1], with Staphylococcus aureus [2] and in the data set on Staphylococcus aureus [3] was more than 95% in each case. For the same compound, the HC20 in the data set with Erythrocyte is more than 64 µg/mL.
In the case of `CCOC(=O)C1=C(c2ccccc2)NC(N)=NC1c1ccc(C)cc1C` (configuration not stated), the MIC with Staphylococcus aureus [4], with Staphylococcus aureus [6] and in the data set on Staphylococcus aureus [5] was 32 µg/mL (≈ 91.6 µM) each time. Also, the “growth inhibition (GI)” value in the data set on Staphylococcus aureus [1], in the data set on Staphylococcus aureus [2] and in the data set on Staphylococcus aureus [3] was more than 95% each time.
As for `CCOC(=O)C1=C(c2cccc(C)c2)NC(N)=NC1c1cc(Cl)cc(Cl)c1` (configuration not stated), the HC20 with Erythrocyte is more than 64 µg/mL.
On to `CCOC(=O)C1=C(c2cccc(C(F)(F)F)c2)NC(N)=NC1c1ccc(CC(C)C)cc1` (configuration not stated), for which the HC20 in the data set with Erythrocyte was 64 µg/mL.
With `CCOC(=O)C1=C(c2ccccc2)NC(N)=NC1c1ccc(C)c(C)c1` (configuration not stated), the “growth inhibition (GI)” value with Staphylococcus aureus [1] and in the data set on Staphylococcus aureus [2] was more than 95% in each case.
As to `CCOC(=O)C1=C(c2ccccc2)NC(N)=NC1c1ccc(OC)cc1` (configuration not stated), in the data set with Staphylococcus aureus [4], the MIC (commonly the least concentration at which growth counts as inhibited) turned out to be 64 µg/mL (≈ 182 µM). For the same compound, the “growth inhibition (GI)” value in the data set with Staphylococcus aureus [1] is listed as more than 95%. Moreover, the HC20 in the data set with Erythrocyte is more than 64 µg/mL.
For the compound `CCOC(=O)C1=C(c2ccccc2)NC(N)=NC1c1ccc(F)cc1` (configuration not stated), the MIC with Staphylococcus aureus [4], with Staphylococcus aureus [6] and in the data set with Staphylococcus aureus [5] was 64 µg/mL (≈ 189 µM) in each case. Besides, the “growth inhibition (GI)” value with Staphylococcus aureus [1], in the data set on Staphylococcus aureus [2] and in the data set on Staphylococcus aureus [3] was more than 95% in each case.
`CCOC(=O)C1=C(c2ccccc2)NC(N)=NC1c1cccc([N+](=O)[O-])c1` (configuration not stated): the “growth inhibition (GI)” value in the data set on Staphylococcus aureus [2] and in the data set with Staphylococcus aureus [3] was more than 95% throughout.
For `CCOC(=O)C1=C(c2ccccc2)NC(N)=NC1c1ccccc1C` (configuration not stated), the MIC with Staphylococcus aureus [4], in the data set with Staphylococcus aureus [6] and in the data set on Staphylococcus aureus [5] was 64 µg/mL (≈ 191 µM) each time. The “growth inhibition (GI)” value with Staphylococcus aureus [1], in the data set on Staphylococcus aureus [2] and in the data set on Staphylococcus aureus [3] was more than 95% throughout.
